One test addresses T1, PD-1/PD-L1 interaction (Homo sapiens, UniProt Q9NZQ7).
T1 construct: expressed in transfected cells; host or cells: CHO cells (aAPC-PD-L1) co-cultured with Jurkat cells overexpressing PD-1 and an NFAT-luciferase reporter
As to the kind of experiment: PD-1/PD-L1 NFAT reporter co-culture assay. It counts as cell-based. To be noted: Jurkat PD-1 NFAT-luciferase cells co-cultured with aAPC-PD-L1 CHO cells, 6 hrs at 37° C.; read-out: EC50 NFAT Luciferase. The method in brief: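 Luminescence (ONE-Glo) after 6 h, 37 °C co-culture reports NFAT-luciferase in PD-1 Jurkat cells, which PD-1/PD-L1 engagement suppresses. Partner cells: CHO expressing anti-CD3 and PD-L1. EC50 from four-parameter dose-response fit.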

For test [1], the target named is T2, interaction between the recombinant extracellular domain (ECD) of PD-1 and native cell-bound PD-L1 (Homo sapiens, UniProt Q9NZQ7).
T2 construct: expressed in transfected cells
The experiment in a line: CHO/PD-L1 cell capture assay. It counts as cell-based. To be noted: CHO cells overexpressing PD-L1, pre-incubated 1 hr with compound, captured on biotinylated Fc-PD-1 coated plates, 75 min at room temperature. As for the experimental part:
EC50-CHO/PD-L1-Capture Assay:
Compounds were tested in a cell capture assay to determine if they can specifically block the interaction between the recombinant extracellular domain (ECD) of PD-1 and native cell-bound PD-L1. Binding affinity of stable CHO cells overexpressing PD-L1 with its cognate recombinant ligand coated on plates was measured by counting the number of ‘captured’ cells. High-capacity streptavidin- coated plates were incubated with biotylated-Fc-PD-1 for 2 hours in PBS. Unbound ligand was washed out. CHO-PD-L1 cells (resuspended in PBS pH 7.4, 0.5 mM EDTA, and 2% bovine serum albumin) were pre-incubated for 1 hr with compound, dispensed into each PD-1 ECD coated well and then incubated for 75 min at room temperature. To stop the capture assay, a fixative/staining solution (final concentrations are 1.3% glutaraldehyde and 1.67 μM Draq5) was gently added to the cells and incubated for 2 hrs at room temperature. Unbound cells were then washed out and ‘captured’ cells were enumerated using a high-content microscopy system. EC50 values were calculated from the fit of the dose-response curves to a four-parameter equation. Representative data are shown below in Table 2.

The target of a further test is PD-1/PD-L1 (Homo sapiens, UniProt Q9NZQ7). As to the kind of experiment: PD-1/PD-L1 biochemical protein-protein interaction assay (ALPHA). It counts as binding. To be noted: 0.3 nM His tagged PD-L1, 2.5 nM biotinylated Fc-PD-1, 60 minutes at 25° C., read-out: IC50 PD-L1-PD-1 Alpha IC50-mono PD-L1-fcP-D1. In outline: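 His-PD-L1 ECD 0.3 nM + biotin-Fc-PD-1 2.5 nM (final), 25 mM Hepes pH 7.4, 150 mM NaCl, 3.4 mM EDTA; 60 min, 25° C; anti-His acceptor/streptavidin donor ALPHA beads; decreased signal = blocked binding; 4-parameter IC50.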

For another test, the target named is T3, PD-L1 (Homo sapiens, UniProt Q9NZQ7).
T3 construct: determine if they can specifically dimerize the extracellular domains of PD-L1
As to the kind of experiment: PD-L1/PD-L1 dimerization biochemical protein-protein interaction assay (ALPHA). The format is binding. To be noted: compound-induced PD-L1 dimerization, head prints '1 nM' (0.5 nM His-tagged PD-L1 and 0.5 nM FLAG-tagged PD-L1), read-out: AC50 PDL1 Dimer Alpha 1 nM. In outline: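 After 2 h at 25 °C with compound, His- and FLAG-tagged PD-L1 ECDs (each 0.5 nM final; 25 mM Hepes pH 7.4, 150 mM NaCl) were detected by sequential anti-His acceptor and anti-FLAG donor bead incubations. Dose-response curves fitted to four-parameter equation for AC50.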

Each structure is given as a SMILES string.

By EC50 is commonly meant the concentration giving half of the maximal effect. The IC50 is the concentration that gives 50% inhibition. A word on the AC50: it is the concentration giving half of the maximal activity seen.

PD-1/PD-L1, sequence (Q9NZQ7 19-238 limits assumed): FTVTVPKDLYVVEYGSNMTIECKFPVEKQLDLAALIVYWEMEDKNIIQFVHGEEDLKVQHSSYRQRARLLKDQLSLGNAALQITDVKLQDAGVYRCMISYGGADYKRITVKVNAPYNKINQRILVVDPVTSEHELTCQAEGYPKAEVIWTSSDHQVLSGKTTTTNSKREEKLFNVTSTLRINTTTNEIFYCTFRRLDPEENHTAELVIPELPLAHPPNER
T3 sequence (Q9NZQ7 19-238 limits assumed): as above
T3 sequence (Q9NZQ7 19-238 limits assumed): as above
T2 sequence (Q9NZQ7 19-290): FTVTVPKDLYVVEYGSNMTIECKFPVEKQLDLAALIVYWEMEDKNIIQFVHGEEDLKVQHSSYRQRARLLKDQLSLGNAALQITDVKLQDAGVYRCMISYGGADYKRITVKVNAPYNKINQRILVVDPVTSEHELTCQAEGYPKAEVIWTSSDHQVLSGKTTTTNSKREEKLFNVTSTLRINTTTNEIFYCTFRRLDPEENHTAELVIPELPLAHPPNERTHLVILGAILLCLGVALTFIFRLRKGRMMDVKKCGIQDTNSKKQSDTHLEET
T1 sequence (Q9NZQ7 19-290): as above

Consider `COc1nc(OCc2cccc(-c3cccc(COc4nc(OC)c(CNC[C@@H](F)C(=O)O)cc4Cl)c3C)c2C)c(Cl)cc1CNC[C@@H](F)C(=O)O` [Example 179, (2R,2′R)-3,3′-((((((2,2′-dimethyl-[1,1′-biphenyl]-3,3′-diyl)bis(methylene))bis(oxy))bis(5-chloro-2-methoxypyridine-6,3-diyl))bis(methylene))bis(azanediyl))bis(2-fluoropropanoic acid)], for which the figures for the EC50 (at PD-1/PD-L1 interaction; in test [1]) were 655 nM and 319 nM, respectively.
For `COc1cc(OCc2cccc(-c3cccc(COc4cc(OCc5cncc(C#N)c5)c(CNC[C@H](O)C(=O)O)cc4Cl)c3C)c2C)c(Cl)cc1CNC[C@H](O)C(=O)O` [Example 216, (S)-3-((4-((3′-((4-((((S)-2-carboxy-2-hydroxyethyl)amino)methyl)-2-chloro-5-((5-cyanopyridin-3-yl)methoxy)phenoxy)methyl)-2,2′-dimethyl-[1,1′-biphenyl]-3-yl)methoxy)-5-chloro-2-methoxybenzyl)amino)-2-hydroxypropanoic acid] the same measures were 514 nM and 206 nM.
The matching figures for `Cc1c(COc2nc(OCC3CCO3)c(CNC[C@@H](O)CC(=O)O)cc2Br)cccc1-c1cccc(COc2nc(OCC3CCO3)c(CNC[C@@H](O)CC(=O)O)cc2Br)c1C` (stereo partly drawn) [Example 131, (3S,3′S)-4,4′-((((((2,2′-dimethyl-[1,1′-biphenyl]-3,3′-diyl)bis(methylene))bis(oxy))bis(5-bromo-2-(oxetan-2-ylmethoxy)pyridine-6,3-diyl))bis(methylene))bis(azanediyl))bis(3-hydroxybutanoic acid)]: 964 nM and 231 nM.
Turning to `Cc1c(COc2cc(OCc3cncc(C#N)c3)c(CNC[C@@H](O)CC(=O)O)cc2Cl)cccc1-c1cccc(-c2ccc(OCCNCCO)c(C(N)=O)c2)c1C` [Example 456], on PD-1/PD-L1 interaction, the EC50 was 1230 nM. For the same compound, the IC50 on PD-1/PD-L1 amounted to 0.269 nM. Moreover, the AC50 at PD-L1 was determined as 182 nM.
For `COc1nc(O[C@H]2CCc3c(-c4cccc(-c5cnc6c(CN7CC8(CNC(=O)C8)C7)cn(C)c6n5)c4Cl)cccc32)c(Cl)cc1CN1CC(C(=O)O)C1` [Example 527] the same measures were 46 nM, 0.064 nM and 69.9 nM.
In the case of `COc1nc(O[C@H]2CCc3c(-c4cccc(-c5cnc(CN6CC(O)C6)c(OC)n5)c4Cl)cccc32)c(Cl)cc1CN1CC[C@H](C(=O)O)C1` [Example 709], at PD-1/PD-L1 interaction, the EC50 turned out to be 21 nM. Moreover, the IC50 at PD-1/PD-L1 stood at 0.064 nM. Besides, the AC50 at PD-L1 is 49.4 nM.
The matching figures for `CS(=O)(=O)c1cncc(COc2nc(OCc3cccc(-c4cccc(-c5ccc6c(c5)C[C@@H](N)C6)c4Cl)c3Cl)c(Br)cc2CN2CCCC[C@H]2C(=O)O)c1` [Example 544]: 109 nM, 0.09 nM and 17.3 nM.
For `COc1nc(O[C@H]2CCc3c(-c4cccc5c4CC[C@@H]5Oc4nc(OCc5cncc(C#N)c5)c(CNC[C@@H](O)CC(=O)O)cc4Br)cccc32)c(Br)cc1CNC[C@@H](O)CC(=O)O` [Example 679] the same measures were 64 nM, 0.058 nM and 101 nM.
The matching figures for `COc1nc(O[C@H]2CCc3c(-c4cccc(-c5cc(C)c(CNC[C@@H]6CCC(=O)N6)c(OC)n5)c4Cl)cccc32)c(Cl)cc1CNC[C@@H]1CCC(=O)N1` [Example 591]: 20 nM, 0.064 nM and 22.7 nM.
As to `COc1nc(O[C@H]2CCc3c(-c4cccc(-c5ccc(CNCCO)cc5)c4Cl)cccc32)c(Cl)cc1CNCCO` [Example 772], on PD-1/PD-L1 interaction, the EC50 is at least 50000 nM. Besides, the IC50 at PD-1/PD-L1 amounted to 0.552 nM. Besides, the AC50 on PD-L1 was found to be 19.5 nM.

The record behind these values is patent US12590062B2, “PD-1/PD-L1 inhibitors” (Gilead Sciences, Inc., priority 2017, dated 2026).
